Consider eight molecules from patent publication EP1641803B1, “THIENOPYRIMIDINE DERIVATIVES AS POTASSIUM CHANNEL INHIBITORS” (Xention Limited, priority 2003, dated 2004).

The IC50 is the concentration at which inhibition is half-maximal. Lower therefore signals higher potency. In general, inhibition refers to the share of the control response that was lost under treatment.

One assay deals with T1, human Kv1.5 (Homo sapiens, UniProt P22460).
T1 construct: expressed in transfected cells
Kind of assay: Kv1.5 Rb+ Efflux Assay. Format: cell-based. The note with it: inhibition of 86Rb+ efflux through Kv1.5; cells stably transfected with human Kv1.5; 10 point concentration response curves n=2; normalised to 2.5mM 4 amino-pyridine block. Summed up:
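Cells stably expressing human Kv1.5 loaded with ⁸⁶Rb⁺ ≥3 h, preincubated 10 min at room temperature with compound, then depolarised with high-KCl (145mM) buffer for 10 min; effluxed ⁸⁶Rb⁺ counted by Cerenkov emission (alternatively ⁸⁵Rb⁺ by atomic absorption). Inhibition normalised to 2.5mM 4-aminopyridine block; IC50 from 10-point curves, n=2, variable-slope sigmoidal fit.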

For a further assay, the target named is hKv1.5 (Homo sapiens, UniProt P22460). Put plainly: Kv1.5 Autopatch Electrophysiology (whole cell patch-clamp). Format: cell-based. The settings on record: compound at 1µM, room temperature (22-24°C), held at -80mV, step to 0mV for 1000ms, total charge measured. The method in brief: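 Whole-cell automated patch-clamp at 22-24°C, compounds tested at 1µM in external bather (KCl/K-gluconate, pH 7.4; KCl/EGTA pipette). Cells held at -80mV and stepped to 0mV for 1000ms every 5s; only cells with IK > 500 pA and Rseries ≤18 MΩ used. Read-out: total charge over the whole step.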
hKv1.5, sequence (P22460 whole entry): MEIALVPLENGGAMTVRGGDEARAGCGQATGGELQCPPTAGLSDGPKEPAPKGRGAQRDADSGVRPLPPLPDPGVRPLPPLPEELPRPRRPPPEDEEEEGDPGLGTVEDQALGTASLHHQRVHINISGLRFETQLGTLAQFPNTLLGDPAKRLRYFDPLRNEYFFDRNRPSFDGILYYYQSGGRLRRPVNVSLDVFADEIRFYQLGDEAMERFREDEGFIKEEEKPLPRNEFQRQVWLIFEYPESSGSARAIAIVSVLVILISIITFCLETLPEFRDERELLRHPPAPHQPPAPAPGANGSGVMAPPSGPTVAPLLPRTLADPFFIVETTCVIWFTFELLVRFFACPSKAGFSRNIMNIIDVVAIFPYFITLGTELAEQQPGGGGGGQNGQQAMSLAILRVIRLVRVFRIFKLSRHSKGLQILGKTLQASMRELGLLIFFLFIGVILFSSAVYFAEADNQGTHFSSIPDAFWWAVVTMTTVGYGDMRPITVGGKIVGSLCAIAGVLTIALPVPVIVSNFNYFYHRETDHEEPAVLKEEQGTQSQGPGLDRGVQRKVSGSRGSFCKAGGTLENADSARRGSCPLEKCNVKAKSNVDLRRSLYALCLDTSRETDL
Background: In patch-clamp work, channel activity is measured electrically.

T1 sequence (P22460 whole entry): as above

Molecule `Clc1cccc(-c2csc3ncnc(NCc4ccccn4)c23)c1` [Example 321, [5-(3-Chlorophenyl)-thieno[2,3-d]pyrimidin-4-yl]-pyridin-2-ylmethyl-amine] came in with an IC50 against human Kv1.5 of 1520 nM. Also, at hKv1.5, the inhibition at 1 µM was found to be 95%.
The corresponding values for `COc1cccc(-c2csc3ncnc(NCc4ccccn4)c23)c1` [Example 322, [5-(3-Methoxyphenyl)-thieno[2,3-d]pyrimidin-4-yl]-pyridin-2-ylmethyl-amine] are 260 nM and 94%.
The corresponding values for `c1ccc(CNc2ncnc3scc(-c4ccc5cc[nH]c5c4)c23)nc1` [Example 323, [5-(1H-Indol-6-yl)-thieno[2,3-d]pyrimidin-4-yl]-pyridin-2-ylmethyl-amine] are 40 nM and 94%.
The like results for `Clc1ccc(-c2csc3ncnc(NCc4ccccn4)c23)cc1` [Example 325, [5-(4-Chlorophenyl)-thieno[2,3-d]pyrimidin-4-yl]-pyridin-2-ylmethyl-amine] were, in that order, 2540 nM and 90.8%.
With `FC1(F)Oc2ccc(-c3csc4ncnc(NCc5ccccn5)c34)cc2O1` [Example 326, [5-(2,2-Difluoro-benzo[1,3]dioxol-5-yl)-thieno[2,3-d]pyrimidin-4-yl]-pyridin-2-ylmethyl-amine], on human Kv1.5, inhibition was half-maximal at 10400 nM (IC50). This molecule also returned an inhibition at 1 µM at hKv1.5 of 89%.
The like results for `Fc1cccc(-c2csc3ncnc(NCc4ccccn4)c23)c1` [Example 331, [5-(3-Fluorophenyl)-thieno[2,3-d]pyrimidin-4-yl]-pyridin-2-ylmethyl-amine] were, in that order, 30 nM and 76%.
As to `c1ccc(CNc2ncnc3scc(-c4ccc(N5CCOCC5)cc4)c23)nc1` [Example 332, [5-(4-Morpholin-4-yl-phenyl)-thieno[2,3-d]pyrimidin-4-yl]-pyridin-2-ylmethyl-amine], on human Kv1.5, half-maximal inhibition (IC50) required 47400 nM. In addition, at hKv1.5, the inhibition at 1 µM is 73%.
The like results for `Fc1ccc(-c2csc3ncnc(NCc4ccccn4)c23)cc1F` [Example 333, [5-(3,4-Difluoro-phenyl)-thieno[2,3-d]pyrimidin-4-yl]-pyridin-2-ylmethyl-amine] were, in that order, 10400 nM and 63%.
